From paper PMC5736709, “Unravelling the specificity and mechanism of sialic acid recognition by the gut symbiont Ruminococcus gnavus” (Nature Communications, 2017)
“Also recorded” adds a separate entry of the source.

What was measured:
RgCBM40 R128A = target: T1, RgCBM40 R128A (Mediterraneibacter gnavus (Ruminococcus gnavus), UniProt A7B557, R128A); test: ITC of sialoglycans binding to RgCBM40 mutant R128A; parameters: species or system Ruminococcus gnavus ATCC 29149; conditions: for Kd: ITC
T1 sequence (A7B557 50-237 R128A): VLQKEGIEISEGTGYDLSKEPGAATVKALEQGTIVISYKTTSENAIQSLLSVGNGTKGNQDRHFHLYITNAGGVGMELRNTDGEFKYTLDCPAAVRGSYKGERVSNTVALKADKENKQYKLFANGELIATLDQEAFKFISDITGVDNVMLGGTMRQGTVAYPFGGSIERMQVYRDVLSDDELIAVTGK
Description: (§1) Site directed mutagenesis of RgGH33 to introduce the D282A mutation in the active site was carried out using the QuikChange kit, following the manufacturer’s instructions, Agilent (Santa Clara, CA, USA). Site-directed mutants of RgCBM40; I95A, Y116A, E126A, R128A, R204A and double mutant R128A/R204A, were obtained from NZyTech (Lisbon, Portugal). The primers are listed in Supplementary Table 4. The integrity of the RgGH33 and RgCBM40 mutants was checked by circular dichroism (CD).
(§2) Isothermal titration calorimetry (ITC) experiments were performed using the PEAQ-ITC system (Malvern, Malvern, UK) with a cell volume of 200 µl. Prior to titration protein samples were exhaustively dialysed into PBS. The ligand was dissolved in the dialysis buffer. The cell protein concentration was 115 µM (except for mutant I95A where it was 173 µM and the wild-type interaction with 6′SL where it was 230 µM) and the syringe ligand concentration was 10 mM (25 mM for Neu5Ac). Controls with titrant (sugar) injected into buffer only were subtracted from the data. Analysis was performed using Malvern software, using a single-binding site model. The stoichiometry of binding sites was set to 1.0 as this was evident from the crystal structure. Quantitative and most qualitative experiments were carried out in triplicate.

SpCBM40_NanC = target: SpCBM40_NanC; parameters: method as in PMID 26370075; conditions: isolated S. pneumoniae SpCBM40_NanC ref 37; cited from earlier work
RgCBM40 E126A = target: T2, RgCBM40 E126A (Mediterraneibacter gnavus (Ruminococcus gnavus), UniProt A7B557, E126A); test: ITC of sialoglycans binding to RgCBM40 mutant E126A; parameters: species or system Ruminococcus gnavus ATCC 29149; conditions: for Kd: ITC
T2 sequence (A7B557 50-237 E126A): T1 sequence (A7B557 50-237 R128A)
Description: as §1, §2

[1] = test system: RgCBM40 binding to LS174T MUC2; test: ELISA of RgCBM40 binding to LS174T MUC2 in competition with sugars; parameters: species or system Ruminococcus gnavus ATCC 29149; conditions: RgCBM40 preincubated with 1 mM free sugar overnight at 4 °C; immobilised LS174T MUC2; A450
Description: RgCBM40 binding to purified mucins was tested by ELISA. Mucins (100 μl of 10 μg ml^−1) were immobilised onto a high binding 96 well plate (Greiner, Stonehouse, UK) overnight at 4 °C. All subsequent steps were carried out for 1 h at room temperature. The plates were blocked with 3% (w/v) BSA, incubated with RgCBM40 (500 μg ml^−1), followed by an incubation with 1:5000 anti-RgNanH (raised in rabbit, Biogenes) then with 1:5000 anti-rabbit secondary antibody (raised in donkey) conjugated to peroxidase (GE Healthcare). Between each step, the plate was washed with 3 × 300 μl of PBS containing 0.05% (v/v) Tween 20 (PBST). Prior to detection, an additional wash step and 30 s incubation with PBST was carried out. Binding was detected using tetramethylbenzidine (TMB) visualisation solution (Biolegend, San Diego, CA, USA) which was incubated for 15 min. The reaction was stopped by addition of 2 M H2SO4 and absorbance measured at 450 nm using a plate-reader (Bench Marl Plus, Biorad), subtracting background readings at 570 nm. Negative controls including no RgCBM40 (subtracted from A450 value), no primary or no secondary antibody were carried out in parallel. For comparison between plates, values were normalised to the reading for LS174T MUC2 which was arbitrarily set at 100%. For enzymatic treatment of the mucin, LS174T MUC2 (2 mg ml^−1) was incubated with sialidases (2 µg ml^−1) overnight at 4 °C on a rotary wheel prior to immobilisation on the plate. For chemical treatment of mucin, LS174T MUC2 was incubated with 0.1 M trifluoroacetic acid (TFA) at 80 °C for 1 h, dialysed against ammonium bicarbonate (50 mM), lyophilised and redissolved in H2O. For the competition assays, RgCBM40 was incubated with 1 mM of free sugar overnight at 4 °C on a rotary wheel prior to addition to the ELISA plate as above. Experiments were carried out in triplicate.

RgCBM40 Y116A = target: T3, RgCBM40 Y116A (Mediterraneibacter gnavus (Ruminococcus gnavus), UniProt A7B557, Y116A); test: ITC of sialoglycans binding to RgCBM40 mutant Y116A; parameters: species or system Ruminococcus gnavus ATCC 29149; conditions: for Kd: ITC
T3 sequence (A7B557 50-237 Y116A): T1 sequence (A7B557 50-237 R128A)
Description: as §1, §2

RgCBM40 = RgCBM40 (Mediterraneibacter gnavus (Ruminococcus gnavus), UniProt A7B557); test: STD NMR of sialoglycans with RgCBM40 WT; parameters: species or system Ruminococcus gnavus ATCC 29149; conditions: 1 mM sialoglycan, 50 μM RgCBM40 WT, 288 K; 'exception' = monosaccharides for which binding was not detected
Description: ^1H and ^13C resonance assignment for all the sugars was performed on the bases of 1D ^1H, 2D DQF-COSY, TOCSY, HSQC and NOESY experiments run on the free ligands in unbuffered D2O, pH 7.0. For STD NMR experiments, all the samples consisted of 1 mM sialoglycans and 50 μM RgCBM40 (WT or I95A mutant) in D2O buffer solution of 10 mM Tris-d11 pH 7.8 and 100 mM NaCl (ligand: protein ratio 20:1). An STD pulse sequence that included 2.5 ms and 5 ms trim pulses and a 3 ms spoil gradient was used. Saturation was achieved applying a train of 50 ms Gaussian pulses (0.40 mW) on the f2 channel, at 0.60 p.p.m. (on-resonance experiments) and 40 p.p.m. (off-resonance experiments). The broad protein signals were removed using a 40 ms spinlock (T1ρ) filter. All the experiments were recorded at ^1H frequency of 800.23 MHz on a Bruker Avance III spectrometer equipped with a 5 mm probe TXI 800 MHz H-C/N-D-05 Z BTO, at 288 K. For all the sialoglycans in the presence of RgCBM40, an STD experiment with a saturation time of 2 s and a relaxation delay of 5 s was performed, as a first test for binding. For the confirmed binders, the STD NMR experiments were carried out at different saturation times (0.5, 1, 2, 3, 4 and 5 s) with 1 K scans and relaxation delay of 5 s, in order to obtain the binding epitope mapping. The resulting build-up curves for each proton were fitted mathematically to a mono-exponential equation (y = a×[1-exp(b×x)]), from which the initial slopes (a×b) were obtained. For each ligand, the binding epitope mapping was obtained by dividing the initial slopes by the one of the H7 proton of the corresponding sialic acid ring, to which an arbitrary value of 100% was assigned. This normalisation of the STD values allows the comparison across all the sialoglycans.

Compound | Binding by ITC (in words) (RgCBM40 R128A) | Kd (RgCBM40 R128A) | Kd (SpCBM40_NanC) | Binding by ITC (in words) (RgCBM40 E126A) | Kd (RgCBM40 E126A) | Effect of free sugar on adherence of RgCBM40 to MUC2 [1] | Binding by ITC (in words) (RgCBM40 Y116A) | Kd (RgCBM40 Y116A) | Binding to RgCBM40 detected by STD NMR (RgCBM40)
CC(=O)N[C@H]1[C@H]([C@H](O)[C@H](O)CO)O[C@@](O[C@H]2[C@@H](O)[C@@H](CO)O[C@@H](O[C@H]3[C@H](O)[C@@H](O)C(O)O[C@@H]3CO)[C@@H]2O)(C(=O)O)C[C@@H]1O (stereo partly drawn) [3′SL, α2-3 sialyllactose] | abolished; also recorded: loss of binding | > 25 mM | ~1.5 mM | abolished | > 25 mM | significantly decreased | abolished | > 25 mM | detected
CC(=O)N[C@H]1[C@H]([C@H](O)[C@H](O)CO)O[C@@](OC[C@H]2O[C@@H](O[C@H]3[C@H](O)[C@@H](O)C(O)O[C@@H]3CO)[C@H](O)[C@@H](O)[C@H]2O)(C(=O)O)C[C@@H]1O (stereo partly drawn) [6′SL, α2,6-sialyllactose] | abolished | > 25 mM | ~1.6 mM | abolished | > 25 mM | significantly decreased | abolished | > 25 mM | detected
